Laboratory results from patent US11590116B2 (THERAVANCE BIOPHARMA R&D IP, LLC, priority 2019, dated 2023).

Tests used:
[1] = target: T1, recombinant human ALK5 (TGF-βR1) protein (Homo sapiens, UniProt P36897); assay: Biochemical ALK5 (TGF-βR1) assay to measure pKi (LANCE Ultra ULight kinase assay); settings: apparent pKi from pIC50 by Cheng-Prusoff, read-out: ALK5 pKi (converted)
T1 construct: purchased Life Technologies PR9075A
T1 sequence (P36897 34-503): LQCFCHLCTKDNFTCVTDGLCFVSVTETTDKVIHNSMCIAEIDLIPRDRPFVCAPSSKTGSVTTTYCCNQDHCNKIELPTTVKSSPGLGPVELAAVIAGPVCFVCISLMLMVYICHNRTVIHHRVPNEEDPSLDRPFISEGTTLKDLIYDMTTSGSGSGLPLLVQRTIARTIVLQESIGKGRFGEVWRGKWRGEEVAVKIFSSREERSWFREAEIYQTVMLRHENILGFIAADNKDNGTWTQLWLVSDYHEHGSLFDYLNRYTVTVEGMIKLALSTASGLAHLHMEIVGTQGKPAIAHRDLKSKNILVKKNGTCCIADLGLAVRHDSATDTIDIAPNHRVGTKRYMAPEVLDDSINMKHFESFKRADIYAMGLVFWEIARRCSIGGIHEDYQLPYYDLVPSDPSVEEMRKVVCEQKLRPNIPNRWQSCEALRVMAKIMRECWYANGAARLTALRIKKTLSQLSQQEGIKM
How it was run: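 After a 60 min room-temperature preincubation of ALK5 with compound, phosphorylation proceeds 60 min at 37 °C on ATP addition (125 μM as 5× stock). Detection: Eu-labelled phospho-Thr1342 Topo IIα antibody in EDTA buffer, pH 7.0; emission 665 nm.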

[2] = system: TGF-β-stimulated SMAD3 phosphorylation in BEAS-2B cells; assay: Cellular ALK5 potency assay, inhibition of TGF-β stimulated pSMAD3 formation in BEAS-2B cells; assay type: cell-based; settings: Homo sapiens; inhibition of TGF-β stimulated pSMAD3 formation, BEAS-2B cells; read-out: BEAS2B pIC50 (converted)
How it was run: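 SMAD3 phosphorylation was measured by AlphaLISA after 30 min TGF-β stimulation (10 ng/mL final) of BEAS-2B cells preincubated 1 h with compound at 37 °C. Results given as pIC50.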

Row | Structure (SMILES) | Ki [1] | IC50 [2]
1 | Cc1cccc(-c2[nH]cnc2-c2ccc3ncc(-c4nccc(C(=O)O)n4)cc3c2)n1 [Compound 1109, 2-[6-[5-(6-methyl-2-pyridyl)-1H-imidazol-4-yl]-3-quinolyl]pyrimidine-4-carboxylic acid] | 0.398 to 3.16 nM | 1580 to 10000 nM
2 | Cc1cccc(-c2[nH]cnc2-c2ccc3ncc(-c4ccc(C(=O)O[C@@H]5CCNC5)nc4)cc3c2)n1 [Compound 1110, [(3R)-pyrrolidin-3-yl] 5-[6-[5-(6-methyl-2-pyridyl)-1H-imidazol-4-yl]-3-quinolyl]pyridine-2-carboxylate] | 0.0398 to 0.316 nM | 200 to 1260 nM
3 | Cc1cccc(-c2[nH]cnc2-c2ccc3ncc(-c4ccc(C(=O)O[C@@H]5CCNC5)cn4)cc3c2)n1 [Compound 1111, [(3R)-pyrrolidin-3-yl] 6-[6-[5-(6-methyl-2-pyridyl)-1H-imidazol-4-yl]-3-quinolyl]pyridine-3-carboxylate] | < 0.0316 nM | 25.1 to 158 nM
4 | Cc1cccc(-c2[nH]cnc2-c2ccc3ncc(-c4cnc(C(=O)OC5CNC5)nc4)cc3c2)n1 [Compound 1112, azetidin-3-yl 5-[6-[5-(6-methyl-2-pyridyl)-1H-imidazol-4-yl]-3-quinolyl]pyrimidine-2-carboxylate] | 0.398 to 3.16 nM | 1580 to 10000 nM
5 | Cc1cccc(-c2[nH]cnc2-c2ccc3ncc(-c4cc(C(=O)OC5CCNCC5)ccn4)cc3c2)n1 [Compound 1115, 4-piperidyl 2-[6-[5-(6-methyl-2-pyridyl)-1H-imidazol-4-yl]-3-quinolyl]pyridine-4-carboxylate] | 0.0398 to 0.316 nM | 25.1 to 158 nM
6 | Cc1cccc(-c2[nH]cnc2-c2ccc3ncc(C(=O)OCC4CC5(CNC5)C4)cc3c2)n1 [Compound 1116, 2-azaspiro[3.3]heptan-6-ylmethyl 6-[5-(6-methyl-2-pyridyl)-1H-imidazol-4-yl]quinoline-3-carboxylate] | 0.0398 to 0.316 nM | 200 to 1260 nM
7 | Cc1cccc(-c2[nH]cnc2-c2ccc3ncc(-c4cncc(CN5CCNCC5)c4)cc3c2)n1 [Compound 1117, 6-[5-(6-methyl-2-pyridyl)-1H-imidazol-4-yl]-3-[5-(piperazin-1-ylmethyl)-3-pyridyl]quinoline] | 0.0398 to 0.316 nM | 25.1 to 158 nM
8 | Cc1cccc(-c2[nH]cnc2-c2ccc3ncc(-c4ncc(C5=CCNC5)s4)cc3c2)n1 [Compound 1118, 5-(2,5-dihydro-1H-pyrrol-3-yl)-2-[6-[5-(6-methyl-2-pyridyl)-1H-imidazol-4-yl]-3-quinolyl]thiazole] | 0.0398 to 0.316 nM | < 20 nM
9 | Cc1cccc(-c2[nH]cnc2-c2ccc3ncc(-c4ccc(C(=O)O[C@H]5CCNC5)cn4)cc3c2)n1 [Compound 1119, [(3S)-pyrrolidin-3-yl] 6-[6-[5-(6-methyl-2-pyridyl)-1H-imidazol-4-yl]-3-quinolyl]pyridine-3-carboxylate] | 0.0398 to 0.316 nM | 25.1 to 158 nM
10 | Cc1cccc(-c2[nH]cnc2-c2ccc3nccc(C(=O)OCCN4CCNCC4)c3c2)n1 [Compound 1121, 2-piperazin-1-ylethyl 6-[5-(6-methyl-2-pyridyl)-1H-imidazol-4-yl]quinoline-4-carboxylate] | 0.398 to 3.16 nM | 200 to 1260 nM
11 | Cc1cccc(-c2[nH]cnc2-c2ccc3ncc(-c4ccc(C(=O)O[C@H]5CCNC5)nc4)cc3c2)n1 [Compound 1122, [(3S)-pyrrolidin-3-yl] 5-[6-[5-(6-methyl-2-pyridyl)-1H-imidazol-4-yl]-3-quinolyl]pyridine-2-carboxylate] | 0.0398 to 0.316 nM | 200 to 1260 nM
12 | Cc1cccc(-c2[nH]cnc2-c2ccc3ncc(-c4cc(C(=O)OCCN5CCNCC5)ccn4)cc3c2)n1 [Compound 1123, 2-piperazin-1-ylethyl 2-[6-[5-(6-methyl-2-pyridyl)-1H-imidazol-4-yl]-3-quinolyl]pyridine-4-carboxylate] | 0.0398 to 0.316 nM | 25.1 to 158 nM
13 | Cc1cccc(-c2[nH]cnc2-c2ccc3ncc(-c4ncc(C(=O)OCCN5CCNCC5)cn4)cc3c2)n1 [Compound 1125, 2-piperazin-1-ylethyl 2-[6-[5-(6-methyl-2-pyridyl)-1H-imidazol-4-yl]-3-quinolyl]pyrimidine-5-carboxylate] | < 0.0316 nM | 25.1 to 158 nM
14 | Cc1cccc(-c2[nH]cnc2-c2ccc3ncc(-c4cccc(C(=O)O[C@@H]5CCNC5)n4)cc3c2)n1 [Compound 1126, [(3R)-pyrrolidin-3-yl] 6-[6-[5-(6-methyl-2-pyridyl)-1H-imidazol-4-yl]-3-quinolyl]pyridine-2-carboxylate] | < 0.0316 nM | 25.1 to 158 nM
15 | Cc1cccc(-c2[nH]cnc2-c2ccc3ncc(-c4cccc(C(=O)OC5CNC5)n4)cc3c2)n1 [Compound 1128, azetidin-3-yl 6-[6-[5-(6-methyl-2-pyridyl)-1H-imidazol-4-yl]-3-quinolyl]pyridine-2-carboxylate] | 0.0398 to 0.316 nM | 25.1 to 158 nM
16 | CN[C@H]1CC[C@H](OC(=O)c2cnc3ccc(-c4nc[nH]c4-c4cccc(C)n4)cc3c2)CC1 [Compound 1129, [4-(methylamino)cyclohexyl] 6-[5-(6-methyl-2-pyridyl)-1H-imidazol-4-yl]quinoline-3-carboxylate] | 0.0398 to 0.316 nM | 25.1 to 158 nM
17 | Cc1cccc(-c2[nH]ncc2-c2ccc3nccc(C(=O)OC[C@H]4CC[C@@H](N)CC4)c3c2)n1 [Compound 1130, (4-aminocyclohexyl)methyl 6-[5-(6-methyl-2-pyridyl)-1H-pyrazol-4-yl]quinoline-4-carboxylate] | 0.398 to 3.16 nM | 25.1 to 158 nM
18 | Cc1cccc(-c2[nH]cnc2-c2ccc3ncc(-c4cnc(C(=O)OC5CCNCC5)nc4)cc3c2)n1 [Compound 1131, 4-piperidyl 5-[6-[5-(6-methyl-2-pyridyl)-1H-imidazol-4-yl]-3-quinolyl]pyrimidine-2-carboxylate] | 0.0398 to 0.316 nM | 200 to 1260 nM
19 | Cc1cccc(-c2[nH]cnc2-c2ccc3ncc(C(=O)OCCCC4CCNCC4)cc3c2)n1 [Compound 1132, 3-(4-piperidyl)propyl 6-[5-(6-methyl-2-pyridyl)-1H-imidazol-4-yl]quinoline-3-carboxylate] | 0.0398 to 0.316 nM | 25.1 to 158 nM
20 | Cc1cccc(-c2[nH]cnc2-c2ccc3ncc(-c4ccnc(C(=O)OC5CNC5)c4)cc3c2)n1 [Compound 1133, azetidin-3-yl 4-[6-[5-(6-methyl-2-pyridyl)-1H-imidazol-4-yl]-3-quinolyl]pyridine-2-carboxylate] | 0.0398 to 0.316 nM | 200 to 1260 nM
21 | Cc1cccc(-c2[nH]ncc2-c2ccc3nccc(C(=O)OCCC4CNC4)c3c2)n1 [Compound 1136, 2-(azetidin-3-yl)ethyl 6-[5-(6-methyl-2-pyridyl)-1H-pyrazol-4-yl]quinoline-4-carboxylate] | 0.398 to 3.16 nM | 200 to 1260 nM
22 | Cc1cccc(-c2[nH]cnc2-c2ccc3ncc(-c4cc(C(=O)O)ccn4)cc3c2)n1 [Compound 1137, 2-[6-[5-(6-methyl-2-pyridyl)-1H-imidazol-4-yl]-3-quinolyl]pyridine-4-carboxylic acid] | 0.0398 to 0.316 nM | 1580 to 10000 nM
23 | Cc1cccc(-c2[nH]cnc2-c2ccc3ncc(-c4cnc(C(=O)OCCN5CCNCC5)nc4)cc3c2)n1 [Compound 1138, 2-piperazin-1-ylethyl 5-[6-[5-(6-methyl-2-pyridyl)-1H-imidazol-4-yl]-3-quinolyl]pyrimidine-2-carboxylate] | 0.398 to 3.16 nM | 200 to 1260 nM
24 | Cc1cccc(-c2[nH]cnc2-c2ccc3ncc(-c4cc(C(=O)OC5CCNCC5)cs4)cc3c2)n1 [Compound 1139, 4-piperidyl 5-[6-[5-(6-methyl-2-pyridyl)-1H-imidazol-4-yl]-3-quinolyl]thiophene-3-carboxylate] | < 0.0316 nM | 25.1 to 158 nM
25 | Cc1cccc(-c2[nH]cnc2-c2ccc3ncc(-c4ncc(C(=O)O)cn4)cc3c2)n1 [Compound 1140, 2-[6-[5-(6-methyl-2-pyridyl)-1H-imidazol-4-yl]-3-quinolyl]pyrimidine-5-carboxylic acid] | 0.0398 to 0.316 nM | 200 to 1260 nM
26 | Cc1cccc(-c2[nH]cnc2-c2ccc3ncc(-c4cc(C(=O)OCCN5CCNCC5)cs4)cc3c2)n1 [Compound 1141, 2-piperazin-1-ylethyl 5-[6-[5-(6-methyl-2-pyridyl)-1H-imidazol-4-yl]-3-quinolyl]thiophene-3-carboxylate] | 0.0398 to 0.316 nM | 25.1 to 158 nM
27 | Cc1cccc(-c2[nH]cnc2-c2ccc3ncc(-c4cnc(C(=O)O)nc4)cc3c2)n1 [Compound 1142, 5-[6-[5-(6-methyl-2-pyridyl)-1H-imidazol-4-yl]-3-quinolyl]pyrimidine-2-carboxylic acid] | 0.398 to 3.16 nM | 1580 to 10000 nM
28 | Cc1cccc(-c2[nH]cnc2-c2ccc3ncc(-c4ncc(C(=O)OCC5CNC5)cn4)cc3c2)n1 [Compound 1144, azetidin-3-ylmethyl 2-[6-[5-(6-methyl-2-pyridyl)-1H-imidazol-4-yl]-3-quinolyl]pyrimidine-5-carboxylate] | 0.0398 to 0.316 nM | 25.1 to 158 nM
